Columns and labels:
Format in all cases: cell-based, human
[1] = system: iNK cell induction from HSPC; test: Design of Experiment (DoE) I and β-mercaptoethanol test, day 6 to day 20; conditions: for direction of effect in DoE I: differentiation and cell number at day 20
Procedure: A design of Experiment (DoE) study was performed to determine the concentrations of zinc sulfate, β-mercaptoethanol, human serum, and glucose that would provide the most differentiation and increased number of cells at differentiation day 20. These factors were selected based on known chemical/biological effects of them in affect general cell proliferation and differentiation. Potential positive/negative involvement of β-mercaptoethanol, zinc ion, human serum, and glucose in NK cell or lymphocyte cell proliferation, killer cell receptor function, and cytotoxicity have been previously reported. There were no known studies conducted on testing optimal range of these factors in NK cell induction from HSPC.
To determine the effects of β-mercaptoethanol on differentiation, CD45+ and CD56+ expression was measured in cells cultured in Stempro34 media, DMEM/F12 media with low zinc, low human serum, and no β-mercaptoethanol (bME), or DMEM/F12 media with low zinc, low human serum, and 50 μM β-mercaptoethanol.
A second DoE experiment (DoE II) was subsequently performed to further optimize the concentrations of zinc, β-mercaptoethanol, human serum albumin, and glucose.

CD45^+/CD56^+ cells = test: Stage II base media comparison (Stempro34 vs DMEM/F12 and others), Day 21 single cells
Procedure: This Example investigates the use of various alternative base media that can be used for Stage II differentiation. […] The HSPC to iNK differentiation from day 6 further on was done in StemPro-34-based media (Table 12). […] In this Example, the […] until day 6 as described in Example 2 (i.e., steps 1-5). Each media was supplemented with 20 ng/mL IL7, 20 ng/mL IL15, 20 ng/mL SCF, 20 ng/mL Flt3lFlt3l and 5 ng/mL of IL-3 for days 6-14 and 20 ng/mL IL7, 20 ng/mL IL15, 20 ng/mL SCF, 20 ng/mL Flt3lFlt3l for days 14-21 of differentiation.
Day 21 single cells were profiled for CD45^+/CD56^+, CD56^+/NKG2D^+, CD56^+/CD94^+, and CD56^+/CD16^+ expression (FIG. 12). […] The DMEM/F12 2:1 basal media was chosen due to its price and higher availability for scale up production.

CD56^+ cells = test: CD45/CD56 expression on day 28 after iPSC-HSPC differentiation optimization
Procedure: For iPSC-HSPC differentiation optimization, CD45/CD56 expression on day 28 was measured (FIG. 10). The HSPC cells on day 6 were further differentiated to iNK in the StemPro-34-based differentiation media Table 12) in the presence of IL7, IL15, SCF. Flt3lFlt3l, (IL3 was added for days 6-14 only). […] However, it was not an optimal condition as the single cells production and expansion was lower than in conditions in the presence of Activin A molecule (data not shown). Due to low CD56^+ cells formation on day 28, the HSPC to iNK differentiation conditions was optimized.

CD45^+CD56^+ cells = test: Effect of CHIR-99021 concentration in NK-MED-005 medium on iNK induction; conditions: 2.5, 3.5 or 4.5 μM in NK-MED-005c, AP2.0, day 20
Procedure: To determine the optimal concentration of CHIR-99021, different concentrations (2.5 μM, 3.5 μM or 4.5 μM) were added to the NK-MED-005c medium (Table 30) to test their effect on iNK induction. Differentiation proceeded according to Protocol 2 (AP2.0) as described in Example 11. Cells were collected and analyzed using flow cytometry to detect CD45^+CD56^+ cells at differentiation day 20.

[2] = system: blood lineage markers, CD33; test: Effect of WNT-C59 in NK-MED-006 medium on iNK induction; conditions: 2 μM in NK-MED-006, AP2.0, day 20 cultures
Procedure: The effect of including WNT-C59 (2 μM) in NK-MED-006 medium during iNK induction using the AP2.0 protocol was examined. […] The addition of WNT-C59 increased proportion of cells expressing non-NK lineage markers.

O=S(=O)([O-])[O-].[Zn+2] [Zinc sulfate]
direction of effect in DoE I [1]: positive effect

OCCS [β-mercaptoethanol]
CD45^+/CD56^+ cells (CD45^+/CD56^+ cells; StemPro34, bME 55 μM, 1 μM, 0 μM (samples #1, #2, #3), day 21): 60% to 90% | effect on iNK differentiation (CD45^+/CD56^+ cells; StemPro-based media, day 6 to day 21): prevented iNK differentiation | effect on iNK cell induction (CD45+, CD56+ expression) ([1]; 50 μM in DMEM/F12 with low zinc, low human serum): negative effect | direction of effect in DoE I [1]: negative effect

Cc1cnc(-c2cnc(NCCNc3ccc(C#N)cn3)nc2-c2ccc(Cl)cc2Cl)[nH]1 [CHIR-99021, 6-[[2-[[4-(2,4-Dichlorophenyl)-5-(5-methyl-1H-imidazol-2-yl)-2-pyrimidinyl]amino]ethyl]amino]-3-pyridinecarbonitrile]
single cells production and expansion (CD56^+ cells; CHIR-99021 alone versus conditions with Activin A, data not shown): lower | CD56^+ percentage, rank among conditions (CD56^+ cells; day 28, StemPro-34-based media, condition #5): highest CD56^+ percentage | amount giving the highest proportion of CD45^+CD56^+ cells (CD45^+CD56^+ cells): moderate amount

Cc1cc(-c2ccc(CC(=O)Nc3ccc(-c4cccnc4)cc3)cc2)ccn1 [WNT-C59]
proportion of cells expressing non-NK lineage markers [2]: increased | proportion of iNK that expressed the myeloid progenitor marker CD33 [2]: altered
